According to patent publication US20260102407A1, “TREATMENT METHODS” (priority 2020, published 2026):

Tests used:
CD31 = experiment: Immunohistochemical staining of rat retina, CD31; format: in vivo; conditions: lasered rat eyes 21 days after injury
From the text: (§1) Rat choroidal laser injury model. Male Brown Norway pigmented rats (8-14 week-old) were anesthetized by an intramuscular injection of Rompun® (xylazine)/Imalgene® (ketamine). Pupils were dilated by instillation of one drop of 0.5% tropicamide before laser burn. Six burns were created in both eyes on Day 0 by applying 170 mW of 532 nm laser light (Viridis laser, Quantel, France) on 75 μm spots around the optic nerve, between the main retinal vessel branches, for 0.1s, through the slit lamp and contact lens. Production of a bubble at the time of laser application confirmed the rupture of Bruch's membrane. […] After anaesthesia, 10% sodium fluorescein (250 μl/100 g body weight) was injected subcutaneously, and ocular fluorescence was recorded 10 min after dye injection. Fluorescein leakage was evaluated on Days 14 and 21 in the angiograms by two examiners masked to the study groups and graded for fluorescein intensity as follows: score 0: no leakage; 1: slightly stained; 2: moderately stained; 3: strongly stained.
Immunohistochemical staining of rat retina. […] IOD of positive staining (red chromogen) was assessed for CD31, VEGF-A165, pERK, FosB and VCAM-1 using Image-Pro Plus software (Cybernetics, Bethesda, MD). IOD in IPL and INL was quantified for CD31; OPL to OS for VEGF-A165; INL to ONL for pERK; GCL to OS for FosB; OLM for VCAM-1, using Image-Pro Plus. […]

[1] = system: Brown Norway pigmented rats; experiment: Rat choroidal laser injury model, fluorescein leakage; format: in vivo; conditions: 192 μg IVT, Days 0 and 7, HRA score Days 14 and 21
From the text: as §1, with “membrane. Compounds in vehicle (saline containing 0.01% DMSO and 0.5% Tween 80, sonicated) in 2-5 μl were injected IVT on Days 0 and 7 under an operating microscope using a 30G needle mounted on a 100 μl Hamilton syringe. Kenacort was administered IVT into each eye on Day 0. Alternatively, aflibercept/Eylea in vehicle (saline) was injected IVT 6 times (Days 0, 3, 7, 10, 14, 17).” for “membrane.”

HMEC-1 = experiment: Endothelial network formation assay on Matrigel; format: cell-based, human
Experimental: Endothelial network formation assay. HMEC-1 (4×10^4 cells/well) in MCDB131 containing 1% FBS and compound (1 or 3 μM) or curcumin (1-40 μM) and 50 ng/ml FGF-2 were added to 96-well plates coated overnight at 4° C. with 100 μl of growth factor-reduced reconstituted basement membrane matrix (Matrigel, cat. 354230, Corning, NY). Network formation was observed over subsequent hours and photographed under 4× or 10× objective using an Olympus CKX41 microscope.

c-Fos = experiment: Western blot, serum-inducible c-Fos expression in HMEC-1; format: cell-based, human; conditions: 30 μM compound, 10% FBS 1 h
Experimental: Western blot analysis with extracts of cells treated with serum. HMEC-1 (80-90% confluency) were arrested in serum-free MCDB131 medium without EGF or hydrocortisone for 20 h. Cells were treated with 30 μM compound in serum-free MCDB131 medium for 4 h, and the medium was changed to complete medium (with 10% FBS with EGF and hydrocortisone) with 30 μM compound for 1 h. Total protein was harvested as previously described in radioimmunoprecipitation (RIPA) lysis buffer with protease inhibitors (Li, Y., et al., Int J Cardiol 220, 185-191 (2016)). Proteins were resolved on 4-20% (w/v) sodium dodecyl sulfate (SDS)-polyacrylamide gradient gels (Bio-Rad Mini-PROTEAN TGX) and transferred to Immobilon-P PVDF membranes (Millipore, USA). Membranes were blocked with 5% skim milk and incubated with rabbit monoclonal FosB (cat. 2251, 1:1000, Cell Signaling, USA), rabbit monoclonal c-Fos antibodies (cat. 2250, 1:1000, Cell Signaling, USA) at 4° C. overnight or mouse monoclonal […] antibodies (cat. A5316, 1:30000, Sigma-Aldrich) at 22° C. for 15 min then incubated with a horseradish peroxidase conjugated secondary goat anti-rabbit (cat. P0448, 1:1000, DAKO Cytomation, Denmark) or goat anti-mouse (cat. P0447, 1:1000, DAKO Cytomation, Denmark) antibodies for 1 h. Chemiluminescence was detected using the Western Lightning Chemiluminescence system (PerkinElmer, USA) and ImageQuant™ LAS 4000 biomolecular imager (GE Healthcare Life Sciences, USA). Band intensity in images generated with the LAS 4000 on automatic exposure with sensitivity/resolution setting high was quantified using NIH ImageJ.

## CCOC(=O)Nc1ccc2c(c1)C(=O)N(CC)c1ccccc1O2 [BT2, (10-ethyl-11-oxo-10,11-dihydro-dibenzo[b,f][1,4]oxazepin-2-yl)-carbamic acid ethyl ester]
CD31
  inducible CD31 staining in the IPL and INL: inhibited inducible CD31 staining
[1]
  reduction of retinal permeability (fluorescein leakage): ~50%
HMEC-1; 1 μM, after 4 h
  endothelial network formation: abolished network formation
HMEC-1; 3 μM, 1% FBS, 50 ng/ml FGF-2, 2, 4, 6 and 24 h
  endothelial network (tubule) formation on Matrigel: inhibited network formation
HMEC-1; after 4 h
  potency relative to curcumin in network formation assay: > 40 fold
c-Fos
  serum-inducible c-Fos expression (Western blot): blocked the inducible expression of c-Fos
